The results in this text go back to ChEMBL document CHEMBL6071186, “Design, Synthesis, and Structural Evaluation of Acetylated Phenylthioketone Inhibitors of HDAC10” (ACS Med Chem Lett, 2024).

In experiment [1] the target is T1, Polyamine deacetylase HDAC10 (Homo sapiens) (UniProt Q969S8).
T1 sequence (whole entry): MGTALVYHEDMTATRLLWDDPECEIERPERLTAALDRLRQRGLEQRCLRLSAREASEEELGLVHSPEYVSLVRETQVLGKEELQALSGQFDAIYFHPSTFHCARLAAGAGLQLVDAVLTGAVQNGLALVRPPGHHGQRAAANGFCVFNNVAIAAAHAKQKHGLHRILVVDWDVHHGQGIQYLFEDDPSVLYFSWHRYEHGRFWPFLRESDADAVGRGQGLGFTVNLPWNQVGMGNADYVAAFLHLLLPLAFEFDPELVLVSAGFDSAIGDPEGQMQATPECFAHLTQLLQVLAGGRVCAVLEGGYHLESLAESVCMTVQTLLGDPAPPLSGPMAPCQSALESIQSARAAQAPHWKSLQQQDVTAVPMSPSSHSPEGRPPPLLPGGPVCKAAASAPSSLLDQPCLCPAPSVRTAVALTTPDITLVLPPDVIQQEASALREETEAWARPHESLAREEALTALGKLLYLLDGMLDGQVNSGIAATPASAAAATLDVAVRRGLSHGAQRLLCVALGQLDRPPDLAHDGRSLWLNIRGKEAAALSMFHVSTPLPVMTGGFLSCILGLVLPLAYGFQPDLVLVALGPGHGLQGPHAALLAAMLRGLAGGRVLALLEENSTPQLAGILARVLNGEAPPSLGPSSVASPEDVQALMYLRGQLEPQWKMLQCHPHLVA
The following applies: dose 500.0 µM.
Description: Binding affinity to humanized HDAC10 (A24E to D94A residues) (unknown origin) extracted from Danio rerio assessed as change in melting temperature at 500 uM by differential scanning fluorimetry analysis

In experiment [2] the target is T1, Polyamine deacetylase HDAC10 (Homo sapiens). The settings on record: dose 500.0 µM. The source holds these as a separate data set.
Description: Binding affinity to humanized HDAC10 (A24E to D94A residues) (unknown origin) extracted from Danio rerio assessed as thermal stability by measuring melting temperature at 500 uM by differential scanning fluorimetry analysis (Rvb = 47.8+/-0.1degreeC)

Consider `CN1CCc2c(c3ccccc3n2Cc2ccc(C(=O)NO)cc2)C1`, for which the ΔTm in experiment [1] stood at 17.7 °C. Besides, the Tm in experiment [2] was 65.5 °C.

By ΔTm is commonly meant the shift of the melting midpoint relative to a reference.
